Molecules are shown by their SMILES.

This experiment deals with T1, recombinant human SAE enzyme (Homo sapiens, UniProt Q9UBT2).
T1 sequence (Q9UBT2 1-640): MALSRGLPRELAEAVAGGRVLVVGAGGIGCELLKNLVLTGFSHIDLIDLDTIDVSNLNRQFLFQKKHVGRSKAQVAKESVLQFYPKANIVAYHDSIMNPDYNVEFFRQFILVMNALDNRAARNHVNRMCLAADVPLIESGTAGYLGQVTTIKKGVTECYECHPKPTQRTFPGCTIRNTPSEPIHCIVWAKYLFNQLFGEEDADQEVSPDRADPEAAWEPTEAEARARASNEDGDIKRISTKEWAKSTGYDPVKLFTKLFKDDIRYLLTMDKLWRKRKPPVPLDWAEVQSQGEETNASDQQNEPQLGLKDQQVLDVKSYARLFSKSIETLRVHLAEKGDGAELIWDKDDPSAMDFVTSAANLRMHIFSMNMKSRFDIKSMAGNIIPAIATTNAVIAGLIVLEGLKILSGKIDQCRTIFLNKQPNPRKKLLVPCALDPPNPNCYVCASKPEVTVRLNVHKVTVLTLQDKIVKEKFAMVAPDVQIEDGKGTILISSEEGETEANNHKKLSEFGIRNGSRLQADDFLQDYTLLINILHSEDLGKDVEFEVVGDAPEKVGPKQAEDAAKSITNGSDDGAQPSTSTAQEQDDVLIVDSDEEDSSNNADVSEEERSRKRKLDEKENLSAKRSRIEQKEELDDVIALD
T1 sequence (Q9UBE0 1-346 partner): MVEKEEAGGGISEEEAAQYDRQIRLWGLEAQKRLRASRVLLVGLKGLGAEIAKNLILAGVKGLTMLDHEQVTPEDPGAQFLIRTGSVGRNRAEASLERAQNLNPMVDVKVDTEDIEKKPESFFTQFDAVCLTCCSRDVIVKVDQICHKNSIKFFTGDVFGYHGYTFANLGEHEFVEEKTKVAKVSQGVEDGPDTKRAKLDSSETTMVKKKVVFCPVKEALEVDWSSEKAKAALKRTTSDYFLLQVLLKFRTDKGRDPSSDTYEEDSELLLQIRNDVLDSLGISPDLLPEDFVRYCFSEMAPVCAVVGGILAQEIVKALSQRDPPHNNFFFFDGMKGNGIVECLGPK
Kind of experiment: SAE HTRF Enzyme Assay. The experiment is classed as biochemical. The settings on record: for IC50: class symbols A-C; for inhibition at 0.111 µM: compound concentration 0.111 μM, read-out: Percent Inhibition. The essentials:
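Reaction with 0.11 nM recombinant human SAE, 0.5 μM ATP, 0.01 μM Ubc9-GST, 0.125 μM Sumo-Flag in HEPES pH 7.5, MgCl2, GSH, BSA, 105 min at 24 °C. Stopped with EDTA/KF buffer carrying Eu-anti-Flag and anti-GST-APC; HTRF read after 2 h; % inhibition or IC50.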
(In general: TR-FRET usually uses a lanthanide donor and a delayed reading to cut background.)

In general, IC50 refers to the concentration that inhibits the measured activity by half. As usually defined, the inhibition is the percentage by which the read-out fell short of the control. For `NS(=O)(=O)OC[C@H]1C[C@@H](Nc2ncncc2C(=O)c2ccn(Cc3ccc(F)c(OC(F)(F)F)c3)n2)[C@H](O)[C@@H]1O` [Compound I-134, [(1R,2R,3S,4R)-4-{[5-({1-[4-fluoro-3-(trifluoromethoxy)benzyl]-1H-pyrazol-3-yl}carbonyl)pyrimidin-4-yl]amino}-2,3-dihydroxycyclopentyl]methyl sulfamate], the half-maximal inhibitory concentration (IC50) was less than 10 nM and the inhibition at 0.111 µM stood at 98%.
For `NS(=O)(=O)OC[C@H]1C[C@@H](Nc2ncncc2C(=O)c2ccn(Cc3ccccc3)n2)[C@@H](O)[C@@H]1O` [Compound I-135, [(1R,2R,3R,4R)-4-({5-[(1-Benzyl-1H-pyrazol-3-yl)carbonyl]pyrimidin-4-yl}amino)-2,3-dihydroxycyclopentyl]methyl sulfamate] the same measures were 10 to 100 nM and 81%.
On the same counts, the results for `NS(=O)(=O)NC[C@H]1C[C@@H](Nc2ncncc2C(=O)c2ccn(Cc3cccc(Cl)c3)n2)[C@H](O)[C@@H]1O` [Compound I-136, N-({(1R,2R,3S,4R)-4-[(5-{[1-(3-Chlorobenzyl)-1H-pyrazol-3-yl]carbonyl}pyrimidin-4-yl)amino]-2,3-dihydroxycyclopentyl}methyl)sulfuric diamide] are 10 to 100 nM and 88%.
For the compound `C[Si](C)(C)c1cccc(Cn2ccc(C(=O)c3cncnc3N[C@@H]3C[C@H](COS(N)(=O)=O)[C@@H](O)C3)n2)c1` [Compound I-137, [(1R,2S,4R)-2-hydroxy-4-{[5-({1-[3-(trimethylsilyl)benzyl]-1H-pyrazol-3-yl}carbonyl)pyrimidin-4-yl]amino}cyclopentyl]methyl sulfamate], the half-maximal inhibitory concentration (IC50) fell in the range of 10 to 100 nM and the inhibition at 0.111 µM is 78%.
On the same counts, the results for `Cc1cc(C(=O)c2cncnc2N[C@@H]2C[C@H](COS(N)(=O)=O)[C@@H](O)[C@H]2O)nn1Cc1ccc(C(F)(F)F)o1` [Compound I-138, [(1R,2R,3S,4R)-2,3-Dihydroxy-4-({5-[(5-methyl-1-{[5-(trifluoromethyl)-2-furyl]methyl}-1H-pyrazol-3-yl)carbonyl]pyrimidin-4-yl}amino)cyclopentyl]methyl sulfamate] are less than 10 nM and 99%.
On the same counts, the results for `NS(=O)(=O)OC[C@H]1C[C@@H](Nc2ncncc2C(=O)c2nn(Cc3ccccc3)cc2Cl)[C@H](O)[C@@H]1O` [Compound I-139, [(1R,2R,3S,4R)-4-({5-[(1-benzyl-4-chloro-1H-pyrazol-3-yl)carbonyl]pyrimidin-4-yl}amino)-2,3-dihydroxycyclopentyl]methyl sulfamate] are less than 10 nM and 86%.
For `NS(=O)(=O)OC[C@H]1C[C@@H](Nc2ncncc2C(=O)c2ccn(Cc3cccc(C(F)(F)F)c3)n2)C[C@@H]1O` [Compound I-140, [(1R,2S,4R)-2-hydroxy-4-{[5-({1-[3-(trifluoromethyl)benzyl]-1H-pyrazol-3-yl}carbonyl)pyrimidin-4-yl]amino}cyclopentyl]methyl sulfamate] the same measures were less than 10 nM and 98%.
On to `NS(=O)(=O)OC[C@H]1C[C@@H](Nc2ncncc2C(=O)c2ccn(Cc3ccc(F)c(Cl)c3)c2)[C@@H](F)[C@@H]1O` [Compound I-141, {(1R,2R,3R,4R)-4-[(5-{[1-(3-chloro-4-fluorobenzyl)-1H-pyrrol-3-yl]carbonyl}pyrimidin-4-yl)amino]-3-fluoro-2-hydroxycyclopentyl}methy1 sulfamate], for which the IC50 was less than 10 nM and the inhibition at 0.111 µM turned out to be 99%.
`NS(=O)(=O)OC[C@H]1C[C@@H](Nc2ncncc2C(=O)c2ccn(Cc3ccccc3)n2)[C@H](O)[C@@H]1O` [Compound I-142, [(1R,2R,3S,4R)-4-({5-[(1-Benzyl-1H-pyrazol-3-yl)carbonyl]pyrimidin-4-yl}amino)-2,3-dihydroxycyclopentyl]methyl sulfamate]: the half-maximal inhibitory concentration (IC50) was less than 10 nM and the inhibition at 0.111 µM is 99%.

For the origin of these results see patent publication US9695154B2, “Heteroaryl inhibitors of sumo activating enzyme” (MILLENNIUM PHARMACEUTICALS, INC., priority 2013, dated 2017).
